# Test results from patent publication US20240376108A1, “SALT AND CRYSTAL FORM OF PYRAZOLE-CONTAINING POLYCYCLIC DERIVATIVE, AND PREPARATION METHOD THEREFOR AND USE THEREOF” (Shanghai Hansoh Biomedical Co., Ltd., priority 2021, published 2024).
# Columns and labels:
# [1] = Metabolic stability in liver microsome (human); assay type: in vitro ADME; conditions: for Human Remaining (%, 60 min): human liver microsome
# Method: (§1) Test Example 5. Assay of Metabolic Stability in Liver Microsome
# (§2) 1. Experimental objective: The objective of the experiment is to determine the stability of the compounds of the Examples in liver microsome of mouse, rat, dog and human.
# (§3) 2.1 Formulation of the working solution of the compound: Formulation of the working solution of the compound: The stock solution of the compound was added to phosphate buffer, and the final concentration was 20 μM.
# (§4) 2.2 Formulation of the working solution of liver microsome: Liver microsome was diluted with 100 mM phosphate buffer to obtain a final concentration of 0.625 mg/mL.
# (§5) 2.3 Formulation of NADPH and UDPGA: NADPH (reduced nicotinamide adenine dinucleotide phosphate) and UDPGA (uridine diphosphate glucuronic acid) were weighed respectively, followed by addition of 100 mM phosphate buffer. The final concentrations were 20 mM.
# (§6) 2.4 Formulation of the channel-forming reagent: 1 mg of Alamethicin was weighed, to which 200 μL of DMSO was added to obtain a 5 mg/mL solution. The solution was diluted with phosphate buffer to obtain a final concentration of 50 μg/mL.
# (§7) 2.5 Formulation of the reaction stop solution: Stop solution: Cold acetonitrile containing 100 ng/mL labetalol hydrochloride and 400 ng/mL tolbutamide as internal standards.
# (§8) 2.6 Incubation procedure: 400 μL of the prepared liver microsome, 25 μL of the working solution of the compound and 25 μL of Alamethicin were added to a 96-well plate successively, which was then pre-incubated at 37° C. for 10 minutes. 50 μL of the prepared NADPH/UDPGA was added to initiate the reaction, and the plate was incubated at 37° C. The total volume of the reaction system was 500 μL. The final contents of the components were as follows:
# (§9) 2.7.1 Chromatographic conditions: • Instrument: Shimadzu LC-30 AD; Chromatographic column: XBridge® C18 (50*4.6 mm, particle size: 5 μm); • Mobile phase: A: 0.1% formic acid solution, B: methanol • Eluent gradient: 0.2˜1.6 min 5% A to 95% A, 3.0˜3.1 min 95% A to 5% A • Running time: 4.0 min.
# (§10) 2.7.2 Mass spectrometry conditions: • Instrument: API5500 liquid chromatography-mass spectrometer, AB Sciex; • Ion source: Electrospray ionization source (ESI); Drying gas: N2, temperature: 500° C.; • Electrospray voltage: 5000V; Detection method: Positive ion detection; • Scanning mode: Mode of reaction monitoring (MRM).
# [2] = Metabolic stability in liver microsome (dog); assay type: in vitro ADME; conditions: for Dog Remaining (%, 60 min): dog liver microsome
# Method: as §1, §2, §3, §4, §5, §6, §7, §8, §9, §10
# [3] = Metabolic stability in liver microsome (rat); assay type: in vitro ADME; conditions: for Rat Remaining (%, 60 min): rat liver microsome
# Method: as §1, §2, §3, §4, §5, §6, §7, §8, §9, §10
# [4] = Metabolic stability in liver microsome (mouse); assay type: in vitro ADME
# Method: as §1, §2, §3, §4, §5, §6, §7, §8, §9, §10
# BALB/c mice = assay: Taste sensitivity assay in BALB/c mice (quinine solution intake); assay type: in vivo; conditions: 30 mpk; for Solution consumption of single mouse, Quinine solution: 3 mmol/L quinine hydrochloride, 30 min
# Text: Test Example 9. Taste Sensitivity Assay in BALB/c Mice
# 1. Experimental objective: In this assay, compounds with less toxic and side effects on animal taste were screened by quinine bitter solution experiment.
# 2.2 Reagents: Quinine monohydrochloride dihydrate (6119-47-7, Adamas).
# 2.3 Animals: BALB/c mice, 6 to 8 weeks old, ♂, purchased from Shanghai SIPPR-BK Laboratory Animal Co., Ltd.
# 3.1 Animal screening: One day before the experiment, all BALB/c mice were weighed, and animals with too high or too low body weight were excluded.
# 3.2 Grouping and water deprivation: BALB/c mice were randomly grouped according to body weight, and were deprived of water 12 to 16 hours before administration with no fasting.
# 3.3 Formulation of aqueous solution of quinine: An appropriate amount of quinine monohydrochloride dihydrate was weighed and formulated into an aqueous solution quinine hydrochloride (concentration: 3 mmol/L) with ultrapure water for later use.
# 3.4 Formulation of test compound: An appropriate amount of the test compound was weighed and formulated into the target concentration with the corresponding solvent according to the experimental design for later use.
# 3.5 Administration and quinine solution intake assay in animal: Administration and fasting: On the day of the experiment, the animals were weighed and fasted, bedding was changed, and the compounds were administered according to the experimental design.
# 1. The corresponding clean mouse drinking bottle was rinsed 2 to 3 times with ultrapure water and the formulated 3 mmol/L aqueous solution of quinine hydrochloride respectively. The bottle was filled and weighed, and the weight was recorded as Wi0.
# 2. According to the experimental design, a certain period after administration, the filled bottle was gently placed in the corresponding mouse cage, and the timing was started. After 30 min, the bottle was gently taken out and weighed, and the weight was recorded as Wi30.
# 3. Calculation of solution consumption of animals in each group: ΔWW(g)=[…]; calculation of solution consumption of single mouse: ΔpWW(g)=ΔWW/N, N is the number of animals in each group.
# 4. Dysgeusia rate=(ΔpWW of the group in which the drinking water was the aqueous solution of quinine hydrochloride and the test compound was administered at the same time−ΔpWW of the group in which the drinking water was the aqueous solution of quinine hydrochloride and the solvent control was administered at the same time)/(ΔpWW of the group in which the drinking water was ultrapure water and the solvent control was administered at the same time−ΔpWW of the group in which the drinking water was the aqueous solution of quinine hydrochloride and the solvent control was administered at the same time)×100%. Data processing was performed with software such as Excel.
Structure (SMILES),"Human Remaining (%, 60 min) [1] [%]","Dog Remaining (%, 60 min) [2] [%]","Rat Remaining (%, 60 min) [3] [%]","Mouse Remaining (%, 60 min) [4] [%]",Dysgeusia rate (BALB/c mice) [%],"Solution consumption of single mouse, Quinine solution (BALB/c mice) [g]","Human t1/2 ([1]; human liver microsome 0.5 mg/mL, compound 1 μM, NADPH/UDPGA)","Dog t1/2 ([2]; dog liver microsome 0.5 mg/mL, compound 1 μM, NADPH/UDPGA) [h]","Rat t1/2 ([3]; rat liver microsome 0.5 mg/mL, compound 1 μM, NADPH/UDPGA)"
"O=C(Cn1c(=O)c2ccc(C(F)(F)F)nc2n2nccc12)Nc1ccc(F)cn1 [Example 18, N-(5-Fluoropyridin-2-yl)-2-(5-oxo-8-(trifluoromethyl)pyrazolo[1,5-a]pyrido[3,2-e]pyrimidin-4(5H)-yl)acetamide]",97.5,93.4,98.9,99.3,−9.81,0.016,–,–,–
"O=C(Cn1c(=O)c2ccc(C(F)(F)F)nc2n2nc(Br)cc12)Nc1ccc(F)cn1 [Example 15, 2-(2-bromo-5-oxo-8-(trifluoromethyl)pyrazolo[1,5-a]pyrido[3,2-e]pyrimidin-4(5H)-yl)-N-(5-fluoropyridin-2-yl)acetamide]",100.4,96.0,102.3,92.5,−3.77,0.048,∞,15.62,–
"N#Cc1cc2n(CC(=O)Nc3ccc(F)cn3)c(=O)c3ccc(C(F)(F)F)nc3n2n1 [Example 17, 2-(2-Cyano-5-oxo-8-(trifluoromethyl)pyrazolo[1,5-a]pyrido[3,2-e]pyrimidin-4(5H)-yl)-N-(5-fluoropyridin-2-yl)acetamide]",101.2,99.0,106.4,91.6,−2.26,0.056,–,–,∞
